Source: patent US20250051347A1, “BIFUNCTIONAL CHIMERIC HETEROCYCLIC COMPOUND AND USE THEREOF AS ANDROGEN RECEPTOR DEGRADER” (Hinova Pharmaceuticals, Inc., priority 2021, published 2025)

Target: T1, androgen receptor (AR) splicing variant AR-v7 (Homo sapiens, UniProt P10275)
T1 construct: The degradation activity of compounds on AR-v7 in 22RV1 cells; host or cells: 22RV1 cells
T1 sequence (P10275 1-644 isoform P10275-3): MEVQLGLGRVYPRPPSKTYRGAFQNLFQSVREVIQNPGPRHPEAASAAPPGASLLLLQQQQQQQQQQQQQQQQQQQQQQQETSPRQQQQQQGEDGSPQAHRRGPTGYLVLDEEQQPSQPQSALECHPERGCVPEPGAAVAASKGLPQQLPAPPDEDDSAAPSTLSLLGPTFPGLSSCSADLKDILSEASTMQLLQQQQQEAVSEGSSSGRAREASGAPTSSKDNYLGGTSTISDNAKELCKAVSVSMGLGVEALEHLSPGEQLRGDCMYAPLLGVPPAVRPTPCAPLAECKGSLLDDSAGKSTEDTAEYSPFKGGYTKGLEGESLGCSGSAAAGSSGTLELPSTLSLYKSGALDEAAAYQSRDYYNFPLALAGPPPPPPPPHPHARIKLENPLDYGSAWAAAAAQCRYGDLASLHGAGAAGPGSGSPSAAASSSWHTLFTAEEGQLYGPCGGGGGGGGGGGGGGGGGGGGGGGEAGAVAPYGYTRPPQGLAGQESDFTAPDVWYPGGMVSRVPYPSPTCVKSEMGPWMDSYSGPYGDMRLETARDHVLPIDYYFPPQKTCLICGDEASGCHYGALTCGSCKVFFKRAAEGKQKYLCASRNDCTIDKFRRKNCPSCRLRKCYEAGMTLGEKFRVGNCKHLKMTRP
Assay: Degradation activity on androgen receptor splicing variant AR-v7 in 22RV1 cells (ELISA)
Type: cell-based
Conditions: AR-v7 degradation in 22RV1 cells, 48 h

| SMILES | DC50 (class symbols) | DC50 (numeric values) |
| --- | --- | --- |
| CC(O)c1ncc(Oc2ccc(C(C)(C)c3ccc(O[C@H]4C[C@@H](Nc5ccc6c(c5)C(=O)N(C5CCC(=O)NC5=O)C6=O)C4)cc3)cc2)cn1 (stereo partly shown) [Example 127] | 11 to 100 nM | – |
| CC(=O)c1nccc(COc2ccc(C(C)(C)c3ccc(O[C@H]4C[C@H](N(C)c5ccc6c(c5)C(=O)N(C5CCC(=O)NC5=O)C6=O)C4)cc3)cc2)n1 (stereo partly drawn) [Example 111, 5-(((trans)-3-(4-(2-(4-((2-acetylpyrimidin-4-yl)methoxy)phenyl)propan-2-yl)phenoxy)cyclobutyl)(methyl)amino)-2-(2,6-dioxopiperidin-3-yl)isoindolin-1,3-dione] | 101 to 1000 nM | – |
| CC(C)(c1ccc(OCc2ccc(F)c(-n3nccn3)n2)cc1)c1ccc(O[C@H]2C[C@H](Nc3ccc4c(c3)C(=O)N(C3CCC(=O)NC3=O)C4=O)C2)cc1 (stereo partly shown) [Example 287] | 11 to 100 nM | – |
| CC(C)(c1ccc(Oc2cnc(C(=O)O)nc2)cc1)c1ccc(O[C@H]2C[C@H](Nc3ccc4c(c3)C(=O)N(C3CCC(=O)NC3=O)C4=O)C2)cc1 (stereo partly shown) [Example 267, 5-(4-(2-(4-((1r,3r)-3-((2-(2,6-dioxopiperidin-3-yl)-1,3-dioxoisoindolin-5-yl)amino)cyclobutyloxy)phenyl)propan-2-yl)phenoxy)pyrimidin-2-carboxylic acid] | 101 to 1000 nM | – |
| CC(C)(c1ccc(OCc2ccnc(OC3CCOCC3)n2)cc1)c1ccc(O[C@H]2C[C@H](Nc3ccc4c(c3)C(=O)N(C3CCC(=O)NC3=O)C4=O)C2)cc1 (stereo partly shown) [Example 368, 2-(2,6-dioxopiperidin-3-yl)-5-(((1r,3r)-3-(4-(2-(4-((2-((tetrahydro-2H-pyran-4-yl)oxy)pyrimidin-4-yl)methoxy)phenyl)isopropan-2-yl)phenoxy)cyclobutyl)amino)isoindolin-1,3-dione] | 11 to 100 nM | – |
| CC(C)(c1ccc(OCCCCCCCCOCCCCNc2ccc3c(c2)C(=O)N(C2CCC(=O)NC2=O)C3=O)cc1)c1ccc(OCc2cccc(NS(C)(=O)=O)n2)cc1 (stereo not shown) [Example 33, N-(6-((4-(2-(4-((8-(4-((2-(2,6-dioxopiperidin-3-yl)-1,3-dioxoisoindolin-5-yl)amino)butoxy)octyl)oxy)phenyl)propan-2-yl)phenoxy)methyl)pyridin-2-yl)methanesulfonamide] | 101 to 1000 nM | – |
| CC(C)(c1ccc(OCc2ccnc(N3CC4(COC4)C3)n2)cc1)c1ccc(OCC2(CNc3ccc4c(c3)C(=O)N(C3CCC(=O)NC3=O)C4=O)CC2)cc1 (stereo not shown) [Example 495] | 101 to 1000 nM | – |
| CC(C)(c1ccc(OCc2ccnc(N3CC4(COC4)C3)n2)cc1)c1ccc(N2CC(CNc3ccc4c(c3)C(=O)N(C3CCC(=O)NC3=O)C4=O)C2)cc1 (stereo not shown) [Example 570] | 101 to 1000 nM | – |
| CC(C)(c1ccc(OCCC#Cc2ccc3c(c2)C(=O)N(C2CCC(=O)NC2=O)C3=O)cc1)c1ccc(OCc2ccnc(N3CC4(COC4)C3)n2)cc1 (stereo not shown) [Example 497] | 1000 to 5000 nM | – |
| CC(=O)c1ncc(Oc2ccc(C(C)(C)c3ccc(OC[C@@H]4CCN4c4ccc5c(c4)C(=O)N(C4CCC(=O)NC4=O)C5=O)cc3)cc2)cn1 (stereo partly drawn) [Example 341, 5-((S)-2-((4-(2-(4-((2-acetylpyrimidin-5-yl)oxy)phenyl)propan-2-yl)phenoxy)methyl)azetidin-1-yl)-2-(2,6-dioxopiperidin-3-yl)isoindolin-1,3-dione] | 11 to 100 nM | – |
| CC(C)(c1ccc(OCc2ccnc(NS(C)(=O)=O)n2)cc1)c1ccc(OCC2CCN(CCCCOCCCCNc3ccc4c(c3)C(=O)N(C3CCC(=O)NC3=O)C4=O)C2)cc1 (stereo not shown) [Example 13, N-(4-((4-(2-(4-((1-(4-(4-(4-)((2-(2,6-dioxopiperidin-3-yl)-1,3-dioxoisoindolin-5-yl)amino)butoxy)butyl)pyrrolidin-3-yl)methoxy)phenyl)propan-2-yl)phenoxy)methyl)pyrimidin-2-yl)methanesulfonamide] | – | 6970 nM |
| CC(C)(c1ccc(OCc2ccnc(NS(C)(=O)=O)n2)cc1)c1ccc(OC[C@H]2CC[C@H](COCCCCCNc3ccc4c(c3)C(=O)N(C3CCC(=O)NC3=O)C4=O)CC2)cc1 (stereo partly shown) [Example 56, N-(4-((4-(2-(4-(((1r,4r)-4-(((5-((2-(2,6-dioxopiperidin-3-yl)-1,3-dioxoisoindolin-5-yl)amino)pentyl)oxy)methyl)cyclohexyl)methoxy)phenyl)isopropan-2-yl)phenoxy)methyl)pyrimidin-2-yl)methanesulfonamide] | – | 5200 nM |
| CC(C)(c1ccc(OCc2ccnc(N3CC4(COC4)C3)n2)cc1)c1ccc(OC[C@@H]2CCCN2c2ccc3c(c2)C(=O)N(C2CCC(=O)NC2=O)C3=O)cc1 (stereo partly drawn) [Example 313, 5-((S)-2-((4-(2-(4-((2-(2-oxa-6-azaspiro[3.3]heptane-6-yl)pyrimidin-4-yl)methoxy)phenyl)propan-2-yl)phenoxy)methyl)pyrrolidin-1-yl)-2-(2,6-dioxopiperidin-3-yl)isoindolin-1,3-dione] | 101 to 1000 nM | – |
| CC(=O)c1ncc(COc2ccc(C(C)(C)c3ccc(OCCCCCCCCOCCCCNc4ccc5c(c4)C(=O)N(C4CCC(=O)NC4=O)C5=O)cc3)cc2)cn1 (stereo not shown) [Example 385, 5-((4-((8-(4-(2-(4-((2-acetylpyrimidin-5-yl)methoxy)phenyl)propan-2-yl)phenoxy)octyl)oxy)butyl)amino)-2-(2,6-dioxopiperidin-3-yl)isoindol-1,3-dione] | – | > 2000 nM |
| Cc1nc(-c2ccnc(Oc3ccc(C(C)(C)c4ccc(O[C@H]5C[C@H](Nc6ccc7c(c6)C(=O)N(C6CCC(=O)NC6=O)C7=O)C5)cc4)cc3)c2)no1 (stereo partly shown) [Example 474] | 11 to 100 nM | – |
| CC(c1ccc(Oc2cnc(-n3ccnn3)nc2)cc1)c1ccc(O[C@H]2C[C@H](Nc3ccc4c(c3)C(=O)N(C3CCC(=O)NC3=O)C4=O)C2)cc1 (stereo partly shown) [Example 519] | 11 to 100 nM | – |
| CC(C)(c1ccc(OCCCNc2cccc3c2C(=O)N(C2CCC(=O)NC2=O)C3=O)cc1)c1ccc(OCc2cnc(N3CCOCC3)s2)cc1 (stereo not shown) [Example 435, 2-(2,6-dioxopiperidin-3-yl)-4-((3-(4-(2-(4-((2-morpholinethiazol-5-yl)methoxy)phenyl)propan-2-yl)phenoxy)propyl)amino)isoindolin-1,3-dione] | 1000 to 5000 nM | – |
| CC(=O)c1nccc(COc2ccc(C(C)(C)c3ccc(OC4CCC5(C4)CN(c4ccc6c(c4)C(=O)N(C4CCC(=O)NC4=O)C6=O)C5)cc3)cc2)n1 (stereo not shown) [Example 490] | 101 to 1000 nM | – |
| CC(C)(c1ccc(OCc2ccnc(NS(C)(=O)=O)n2)cc1)c1ccc(OCC2CCN(C[C@H]3CC[C@H](CN4CCN(c5ccc6c(c5)C(=O)N(C5CCC(=O)NC5=O)C6=O)CC4)CC3)CC2)cc1 (stereo partly shown) [Example 45] | – | 8760 nM |
| CC(C)(c1ccc(OCc2ccnc(N3CCN(CCO)CC3)n2)cc1)c1ccc(O[C@H]2C[C@@H](Nc3ccc4c(c3)C(=O)N(C3CCC(=O)NC3=O)C4=O)C2)cc1 (stereo partly shown) [Example 241, 2-(2,6-dioxopiperidin-3-yl)-5-(((1s,3s)-3-(4-(2-(4-((2-(4-(2-hydroxylethyl)piperazin-1-yl)pyrimidin-4-yl)methoxy)phenyl)propan-2-yl)phenoxy)cyclobutyl)amino)isoindolin-1,3-dione] | 11 to 100 nM | – |
| CC(C)(c1ccc(OCCCNc2cccc3c2C(=O)N(C2CCC(=O)NC2=O)C3=O)cc1)c1ccc(OCc2nc3ncccc3o2)cc1 (stereo not shown) [Example 443, 2-(2,6-dioxopiperidin-3-yl)-4-((3-(4-(2-(4-(oxazolo[4,5-b]pyridin-2-ylmethoxy)phenyl)propan-2-yl)phenoxy)propyl)amino)isoindolin-1,3-dione] | 11 to 100 nM | – |
| Cn1cc(-c2cccc(COc3ccc(C(C)(C)c4ccc(O[C@H]5C[C@@H](Nc6ccc7c(c6)C(=O)N(C6CCC(=O)NC6=O)C7=O)C5)cc4)cc3)n2)cn1 (stereo partly shown) [Example 418] | 11 to 100 nM | – |
| CC(C)(c1ccc(OCCCCCCCCOCCCCNc2ccc3c(c2)C(=O)N(C2CCC(=O)NC2=O)C3=O)cc1)c1ccc(OCc2nccc(NS(C)(=O)=O)n2)cc1 (stereo not shown) [Example 32, N-(2-((4-(2-(4-((8-(4-((2-(2,6-dioxopiperidin-3-yl)-1,3-dioxoisoindolin-5-yl)amino)butoxy)octyl)oxy)phenyl)propan-2-yl)phenoxy)methyl)pyrimidin-4-yl)methanesulfonamide] | – | > 10000 nM |
| CC(c1ccc(C(C)(C)c2ccc(OCc3ccnc(N4CC5(COC5)C4)n3)cc2)cc1)N1CC(Nc2ccc3c(c2)C(=O)N(C2CCC(=O)NC2=O)C3=O)C1 (stereo not shown) [Example 505, 5-((1-(1-(4-(2-(4-(4-) 4-((2-(2-oxa-6-azaspiro[3.3]heptane-6-yl)pyrimidin-4-yl)methoxy)phenyl)propan-2-yl)phenyl)ethyl)azetidin-3-yl)amino)-2-(2,6-dioxopiperidin-3-yl)isoindolin-1,3-dione] | 1000 to 5000 nM | – |
| CC(C)(c1ccc(OCc2ccnc(N3CC4(COC4)C3)n2)cc1)c1ccc(OC[C@H]2CCCN2Cc2ccc3c(c2)C(=O)N(C2CCC(=O)NC2=O)C3=O)cc1 (stereo partly shown) [Example 565] | 1000 to 5000 nM | – |
| CC(C)(c1ccc(OCc2ccnc(N3CC4(COC4)C3)n2)cc1)c1ccc(OC2CCCC[C@H]2Nc2ccc3c(c2)C(=O)N(C2CCC(=O)NC2=O)C3=O)cc1 (stereo partly shown) [Example 152] | 1000 to 5000 nM | – |
| CC(C)(c1ccc(OCCCOCCCNc2cccc3c2C(=O)N(C2CCC(=O)NC2=O)C3=O)cc1)c1ccc(OCc2ccnc(NS(C)(=O)=O)n2)cc1 (stereo not shown) [Example 17] | 1000 to 5000 nM | – |
| Cc1nc(-c2cnc(Oc3ccc(C(C)(C)c4ccc(O[C@H]5C[C@@H](Nc6ccc7c(c6)C(=O)N(C6CCC(=O)NC6=O)C7=O)C5)cc4)cc3)nc2)no1 (stereo partly shown) [Example 336] | 11 to 100 nM | – |
